Measurements from patent US11576887B2, “Nitro-oleic acid controlled release platform to induce regional angiogenesis in abdominal wall repair” (University of Pittsburgh—Of the Commonwealth System of …, priority 2017, dated 2023).
Entries after “also recorded” stand apart in the source; their conditions may differ.

Columns and labels:
[1] = NO2-OA controlled release in vitro from PLGA microparticles and scaffolds in lipase solution; assay type: physicochemical
Description: NO2-OA in microparticles and scaffolds was extracted by dissolving the samples in 200 μL, HFIP with 0.5 pmol NO2−^[13C18]OA internal standard, and extracted three times with 1 mL methanol, each time vortexing and centrifuging at 15,000 xg for 10 min at 4° C. Then, the collected methanol was dried under a stream of nitrogen, reconstituted in 100 μL methanol and analyzed by high performance liquid chromatography-electrospray ionization-tandem mass spectrometry (HPLC-ESI-MS/MS). Controlled release (n=3) of NO2-OA in microparticles (FIG. 1D) and scaffolds (FIGS. 3B) was studied in 50 mM phosphate buffer, pH 7.4 with 0.2 mg/mL porcine lipase at 37° C. Aliquots were collected at various time points, spiked with 15 pmol NO2−^[13C18]OA, 1 mL acetonitrile was added and then, samples were vortexed, centrifuged and analyzed by HPLC-ESI-MS/MS. At each time point a fresh incubating solution was utilized.
Analysis of NO2-OA was performed by HPLC-ESI-MS/MS. […] NO2-OA was analyzed in negative mode with the following parameters: declustering potential (DP)—75V, collision energy (CE)—35 eV, desolvation temperature of 700° C., and a multiple reaction monitoring (MRM) transition 326.3/46. Quantification of NO2-OA in samples was performed by stable isotopic dilution analysis using a NO2-OA calibration curve in the presence of NO2-[^13C18]OA internal standard (MRM 344.3/46).

[2] = tested on: rat abdominal wall partial thickness defect; experiment: Blood vessel morphological assessment (MT staining, CD31/αSMA immunofluorescence) of 8 wk explants; assay type: in vivo, Sprague-Dawley rats; conditions: rat abdominal wall defect model, 8 wk end-point
From the text: Adult female Sprague-Dawley rats 10-12 wk old, ˜250 g in weight (Harlan Sprague Dawley Inc., Indianapolis, Ind., USA) were used for the abdominal wall repair procedure. The experiment was designed to assess the effects of NO2-FA controlled release on angiogenesis. Therefore, a partial wall defect was preferred to a full wall defect model, this enabled evaluation of the impact of drug release on the tissue underneath the abdominal wall patch. The surgical protocol was adapted from a procedure previously established Lai et al. Peritoneal Regeneration Induced by an Acellular Bovine Pericardial Patch in the Repair of Abdominal Wall Defects. Journal of Surgical Research 127, 85, 2005. In brief, inhalation of 1.25-2.5% (maintenance-induction) isoflurane with 100% oxygen was adopted as anesthetic. The skin was shaved and the surgical field was prepared by sterilization with povidone-iodine solution, the rats were positioned in dorsal recumbency on a heating blanket, the operating environment was kept sterile during the procedure. […]
Regional angiogenesis was investigated by combining morphological with topological information. Morphological assessment included quantification of blood vessel/mm^2 and vessel type and was performed with two distinct experiments: histological (FIG. 7, 9) and immunofluorescence assessment (FIG. 8). […]

[3] = tested on: rat abdominal wall partial thickness defect; experiment: Rat abdominal wall partial thickness defect repair, histological assessment of 8 wk explants; assay type: in vivo, Sprague-Dawley rats
Description: At 8 wk post-implantation samples were retrieved, fixed in 10% formalin solution for ≥24 h, embedded in paraffin and serially sectioned into specimens 10 μm in thickness. Next, hematoxylin and eosin (H&E) and Masson' trichrome (MT) staining of pre implantation scaffolds and explants were utilized to evaluate: polymeric fiber volume, newly formed tissue, cellular infiltration, and scar area (FIG. 4-FIG. 5). In order to assess the foreign body response a custom-made algorithm, developed in Matlab (Mathwork, Natick Mass.), was utilized to segment and quantify collagen rich areas (FIG. 4G-4H). The algorithm is based on a two-phase iterative process known as k means clustering. In step one, given an integer k and an array of data, k cluster centroids were identified minimizing the total squared Euclidean distance between each pixel and its closest RGB centroid. With k=4, the algorithm segmented each image into 4 color groups corresponding to background, muscle tissue, collagen or de-novo ECM, and scaffold.
At the macroscopic scale, cross sections were utilized to quantify explant thickness. NIH Image J was utilized to identify the explant central line, draw equi-spaced segments (n=10) perpendicular to this line intersecting the abdominal wall border, and calculate the mean of their lengths. This measure was coupled with in situ explant visual inspection (FIG. 6). […]

For CCCCCCCC/C(=C\CCCCCCCC(=O)O)[N+](=O)[O-] [NO2-OA, 10-nitro-9-trans-octadecenoic acid], the “NO2-OA release profile from PLGA microparticles” value ([1]; 50 mM phosphate buffer pH 7.4, 0.2 mg/mL porcine lipase, 37° C, effect of microparticle size) was “sigmoidal”, the “duration of controlled NO2-OA release from PLGA microparticles” value ([1]; NO2-OA (1mM), particle size 1-50 μm range) was “up to 7 days” and the “regional angiogenesis / neovascularization” value [2] was “additional effect; also recorded: promotes neovascularization; also recorded: significantly improved regional angiogenesis; also recorded: significantly enhanced regional angiogenesis”. The “abdominal wall thickness of explants” value ([3]; 8 wk, compared with healthy native rat abdominal wall) was “significantly increased wall thickness” and the fibrotic response ([3]; rat abdominal wall defect model) was “significantly reduce fibrotic response”.
